Structures can show the parent of a compound that is named as a salt.

In the assay the target is T1, human MAO-B (Homo sapiens, UniProt P27338).
T1 construct: expressed in transfected cells; host or cells: EBNA cells (transient transfection); cell membranes used
T1 sequence (P27338 1-520): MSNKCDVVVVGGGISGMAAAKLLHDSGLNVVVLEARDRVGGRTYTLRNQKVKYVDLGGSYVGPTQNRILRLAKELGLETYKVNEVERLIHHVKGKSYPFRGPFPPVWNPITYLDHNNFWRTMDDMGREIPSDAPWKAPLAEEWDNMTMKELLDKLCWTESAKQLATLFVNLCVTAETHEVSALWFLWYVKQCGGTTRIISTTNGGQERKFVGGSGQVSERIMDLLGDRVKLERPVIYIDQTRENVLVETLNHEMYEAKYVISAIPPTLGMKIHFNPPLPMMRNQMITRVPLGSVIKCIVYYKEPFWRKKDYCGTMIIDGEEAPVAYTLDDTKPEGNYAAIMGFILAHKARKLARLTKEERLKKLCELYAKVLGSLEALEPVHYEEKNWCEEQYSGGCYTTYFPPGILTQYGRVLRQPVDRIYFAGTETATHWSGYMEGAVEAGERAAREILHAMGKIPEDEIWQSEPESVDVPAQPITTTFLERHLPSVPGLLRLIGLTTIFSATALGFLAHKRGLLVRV
Nature of the assay: MAO-B enzymatic activity, spectrophotometric Amplex Red/peroxidase assay on membranes of transfected EBNA cells. Format: biochemical. To be noted: membranes preincubated with compound 30 min at 37° C., pH 7.4; substrate tyramine; nine inhibitor concentrations in duplicate. The method, then:
The cDNA's encoding human MAO-A and MAO-B were transiently transfected into EBNA cells using the procedure described by E.-J. Schlaeger and K. Christensen (Transient Gene Expression in Mammalian Cells Grown in Serum-free Suspension Culture; Cytotechnology, 15: 1-13, 1998). After transfection, cells were homogenised by means of a Polytron homogenizer in 20 mM Tris HCl buffer, pH 8.0, containing 0.5 mM EGTA and 0.5 mM phenylmethanesulfonyl fluoride. Cell membranes were obtained by centrifugation at 45,000×g and, after two rinsing step with 20 mM Tris HCl buffer, pH 8.0, containing 0.5 mM EGTA, membranes were eventually re-suspended in the above buffer and aliquots stored at −80° C. until use.
MAO-A and MAO-B enzymatic activity was assayed in 96-well-plates using a spectrophometric assay adapted from the method described by M. Zhou and N. Panchuk-Voloshina (A One-Step Fluorometric Method for the Continuous Measurement of Monoamine Oxidase Activity, Analytical Biochemistry, 253: 169-174, 1997). Briefly, membrane aliquots were incubated in 0.1 M potassium phosphate buffer, pH 7.4, for 30 min at 37° C. with or without various concentrations of the compounds. After this period, the enzymatic reaction was started by the addition of the MAO substrate tyramine together with 1 U/ml horse-radish peroxidase (Roche Biochemicals) and 80 μM N-acetyl-3,7,-dihydroxyphenoxazine (Amplex Red, Molecular Probes). The samples were further incubated for 30 min at 37° C. in a final volume of 200 μl and absorbance was then determine at a wavelength of 570 nm using a SpectraMax plate reader (Molecular Devices). Background (non-specific) absorbance was determined in the presence of 10 μM clorgyline for MAO-A or 10 μM L-deprenyl for MAO-B.
IC50 values were determined from inhibition curves obtained using nine inhibitor concentrations in duplicate, by fitting data to a four parameter logistic equation using a computer program.
`CC(=O)NCC(=O)Nc1ccc(OCc2cccc(F)c2)cc1F` [Example 75, 2-Acetylamino-N-[2-fluoro-4-(3-fluoro-benzyloxy)-phenyl]-acetamide]: the IC50 turned out to be 13 nM.

With `NC(=O)CC(=O)Nc1ccc(OCc2ccc(Cl)cc2)cc1` [Example 34, N-[4-(4-Chloro-benzyloxy)-phenyl]-malonamide], the half-maximal inhibitory concentration (IC50) was found to be 18 nM.

For `CC(C(N)=O)C(=O)Nc1ccc(OCc2cccc(F)c2)cc1` (stereo not drawn) [Example 6, N-[4-(3-Fluoro-benzyloxy)-phenyl]-2-methyl-malonamide], the IC50 was determined as 13 nM.

As for `NC(=O)CC(=O)Nc1ccc(OCc2cccc(F)c2)cc1O` [Example 38, N-[4-(3-Fluoro-benzyloxy)-2-hydroxy-phenyl]-malonamide], the half-maximal inhibitory concentration (IC50) came to 16 nM.

Consider `NC(=O)CC(=O)Nc1ccc(C=Cc2ccc(F)cc2)cc1` [Example 57, N-{4-[2-(4-Fluoro-phenyl)-vinyl]-phenyl}-malonamide], for which the IC50 is 18 nM.

Consider `O=CNCC(=O)Nc1ccc(OCc2ccc(F)cc2)cc1F` [Example 72, N-[2-Fluoro-4-(4-fluoro-benzyloxy)-phenyl]-2-formylamino-acetamide], for which the half-maximal inhibitory concentration (IC50) is 7 nM.

Regarding `NCC(=O)Nc1ccc(OCc2ccc(F)cc2)cc1F` [Example 66, 2-Amino-N-[2-fluoro-4-(4-fluoro-benzyloxy)-phenyl]-acetamide (1:1) hydrochloride], the IC50 worked out at 16 nM.

For `COC(=O)CC(=O)Nc1ccc(OCc2ccc(F)cc2)cc1F` [Example 39, N-[2-Fluoro-4-(4-fluoro-benzyloxy)-phenyl]-malonamic acid methyl ester], the half-maximal inhibitory concentration (IC50) turned out to be 5 nM.

In the case of `COC(=O)CC(=O)Nc1ccc(OCc2ccc(F)cc2F)cc1` [Example 25, N-[4-(2,4-Difluoro-benzyloxy)-phenyl]-malonamic acid methyl ester], the IC50 was 11 nM.

As to `COC(=O)CC(=O)Nc1ccc(OCc2cccc(F)c2)cc1F` [Example 14, N-[2-Fluoro-4-(3-fluoro-benzyloxy)-phenyl]-malonamic acid methyl ester], the IC50 was determined as 9 nM.

Turning to `NC(=O)CC(=O)Nc1ccc(OCc2ccc(F)cc2)cc1` [Example 11, N-[4-(4-Fluoro-benzyloxy)-phenyl]-malonamide], the half-maximal inhibitory concentration (IC50) stood at 7.5 nM.

Take `NC(=O)C1(C(=O)Nc2ccc(OCc3cccc(F)c3)cc2)CC1` [Example 2, Cyclopropane-1,1-dicarboxylic acid amide [4-(3-fluoro-benzyloxy)-phenyl]-amide]: the IC50 turned out to be 7.9 nM.

In the case of `NC(=O)CC(=O)Nc1ccc(OCc2cccc(F)c2)cc1` [Example 3, N-[4-(3-Fluoro-benzyloxy)-phenyl]-malonamide], the IC50 came out at 10.9 nM.

Turning to `COC(=O)CC(=O)Nc1ccc(OCc2cccc(F)c2)c(Cl)c1` [Example 49, N-[3-Chloro-4-(3-fluoro-benzyloxy)-phenyl]-malonamic acid methyl ester], the half-maximal inhibitory concentration (IC50) was found to be 10 nM.

As for `COC(=O)CC(=O)Nc1ccc(OCc2cccc(F)c2)cc1` [Example 1, N-[4-(3-Fluoro-benzyloxy)-phenyl]-malonamic acid methyl ester], the IC50 was determined as 11 nM.

`NC(=O)CC(=O)Nc1ccc(OCc2cccc(F)c2)c(F)c1` [Example 9, N-[3-Fluoro-4-(3-fluoro-benzyloxy)-phenyl]-malonamide]: the IC50 was 7.2 nM.

`NC(=O)CC(=O)Nc1ccc(OCc2ccc(F)cc2)cc1F` [Example 40, N-[2-Fluoro-4-(4-fluoro-benzyloxy)-phenyl]-malonamide]: the concentration for half-maximal inhibition (IC50) is 15 nM.

Turning to `O=CNCC(=O)Nc1ccc(OCc2cccc(F)c2)cc1F` [Example 76, N-[2-Fluoro-4-(3-fluoro-benzyloxy)-phenyl]-2-formylamino-acetamide], the half-maximal inhibitory concentration (IC50) was 16 nM.

On to `COC(=O)CC(=O)Nc1ccc(OCc2cc(C(F)(F)F)cc(C(F)(F)F)c2)cc1F` [Example 41, N-[4-(3,5-Bis-trifluoromethyl-benzyloxy)-2-fluoro-phenyl]-malonamic acid methyl ester], for which the IC50 turned out to be 13 nM.

With `COC(=O)CC(=O)Nc1ccc(OCc2cccc(F)c2)c(F)c1` [Example 8, N-[3-Fluoro-4-(3-fluoro-benzyloxy)-phenyl]-malonamic acid methyl ester], the IC50 worked out at 9.6 nM.

On to `COC(=O)CC(=O)Nc1ccc(OCc2cccc(F)c2)c(C)c1` [Example 47, N-[4-(3-Fluoro-benzyloxy)-3-methyl-phenyl]-malonamic acid methyl ester], for which the IC50 came out at 14 nM.

In the case of `NC(=O)CC(=O)Nc1ccc(OCc2ccc(F)cc2F)cc1` [Example 28, N-[4-(2,4-Difluoro-benzyloxy)-phenyl]-malonamide], the IC50 turned out to be 8 nM.

`NC(=O)CC(=O)Nc1ccc(OCc2cccc(F)c2)c(Cl)c1` [Example 50, N-[3-Chloro-4-(3-fluoro-benzyloxy)-phenyl]-malonamide]: the 50% inhibitory concentration (IC50) worked out at 6 nM.

On to `NC(=O)CC(=O)Nc1ccc(OCc2ccc(C(F)(F)F)cc2)cc1F` [Example 44, N-[2-Fluoro-4-(4-trifluoromethyl-benzyloxy)-phenyl]-malonamide], for which the IC50 is 9 nM.

For `COC(=O)CC(=O)Nc1ccc(OCc2ccc(F)cc2)cc1` [Example 10, N-[4-(4-Fluoro-benzyloxy)-phenyl]-malonamic acid methyl ester], the IC50 was 11.2 nM.

On to `Cc1cc(NC(=O)CC(N)=O)ccc1OCc1cccc(F)c1` [Example 48, N-[4-(3-Fluoro-benzyloxy)-3-methyl-phenyl]-malonamide], for which the half-maximal inhibitory concentration (IC50) came out at 19 nM.

Take `COC(=O)CC(=O)Nc1ccc(OCc2cc(F)c(F)cc2F)cc1` [Example 27, N-[4-(2,4,5-Trifluoro-benzyloxy)-phenyl]-malonamic acid methyl ester]: the IC50 came to 11 nM.

For the molecule `COC(=O)CC(=O)Nc1ccc(C=Cc2ccc(F)cc2)cc1` [Example 56, N-{4-[2-(4-Fluoro-phenyl)-vinyl]-phenyl}-malonamic acid methyl ester], the IC50 was 10 nM.

As to `CC(=O)NCC(=O)Nc1ccc(OCc2ccc(F)cc2)cc1F` [Example 70, 2-Acetylamino-N-[2-fluoro-4-(4-fluoro-benzyloxy)-phenyl]-acetamide], the IC50 was found to be 11 nM.

For `NC(=O)CC(=O)Nc1ccc(OCc2cc(F)c(F)cc2F)cc1` [Example 29, N-[4-(2,4,5-Trifluoro-benzyloxy)-phenyl]-malonamide], the half-maximal inhibitory concentration (IC50) is 8 nM.

As a reminder, the IC50 is the midpoint of a concentration-inhibition curve.

These data come from US7053245B2, “N-acylamino benzyl ether derivatives” (Hoffmann-La Roche Inc., priority 2002, dated 2006).
